This is an account of results in patent US4681894A, “Hydroxamic acids and esters” (Ortho Pharmaceutical Corporation, priority 1986, dated 1987).

Usually IC50 stands for the concentration needed to halve the response being measured.

Experiment [1] deals with Lewis strain laboratory rats. As to the kind of experiment: In vivo alleviation of inflammation: Mycobacterium butyricum-induced polyarthritis, inhibition of paw volume increase. Conditions: Rattus norvegicus, po, five consecutive days from day 10, paw volume about 4 h after final dose, read-out: % Inhibition Oral Dosage (percentage inhibition of pad swelling); for inhibition in vivo at 50 mg/kg: 50 mg/kg p.o. Set-up: species or system rat (Lewis strain). Here is the method: Polyarthritis was induced in Lewis strain laboratory rats (weight=about 200 grams) by injection of a suspension of Mycobacterium butyricum in mineral oil into the subplantar tissue of the mammals' hind paws. On day 10 after the injection, the rats were assigned to groups, and paw volumes and body weights were recorded. Paw volumes of the contralateral, uninjected hind paw were determined by mercury plethylsmography. Per os (p.o.) dosing began and continued for five consecutive days thereafter. On day 14 after the initial injection, approximately four hours after the final dose was administered, paw volumes and body weights were recorded and quantitated.
Anti-inflammatory activity of the substituted naphthalene compounds is expressed as the present inhibition of paw volume increase.

The next experiment deals with T1, 5-lipoxygenase (Rattus norvegicus, UniProt P12527).
T1 construct: 5-HETE Production in Whole Cells; endogenous in cells; host or cells: RBL-1 (rat basophilic leukemia cells)
T1 sequence (P12527 1-673): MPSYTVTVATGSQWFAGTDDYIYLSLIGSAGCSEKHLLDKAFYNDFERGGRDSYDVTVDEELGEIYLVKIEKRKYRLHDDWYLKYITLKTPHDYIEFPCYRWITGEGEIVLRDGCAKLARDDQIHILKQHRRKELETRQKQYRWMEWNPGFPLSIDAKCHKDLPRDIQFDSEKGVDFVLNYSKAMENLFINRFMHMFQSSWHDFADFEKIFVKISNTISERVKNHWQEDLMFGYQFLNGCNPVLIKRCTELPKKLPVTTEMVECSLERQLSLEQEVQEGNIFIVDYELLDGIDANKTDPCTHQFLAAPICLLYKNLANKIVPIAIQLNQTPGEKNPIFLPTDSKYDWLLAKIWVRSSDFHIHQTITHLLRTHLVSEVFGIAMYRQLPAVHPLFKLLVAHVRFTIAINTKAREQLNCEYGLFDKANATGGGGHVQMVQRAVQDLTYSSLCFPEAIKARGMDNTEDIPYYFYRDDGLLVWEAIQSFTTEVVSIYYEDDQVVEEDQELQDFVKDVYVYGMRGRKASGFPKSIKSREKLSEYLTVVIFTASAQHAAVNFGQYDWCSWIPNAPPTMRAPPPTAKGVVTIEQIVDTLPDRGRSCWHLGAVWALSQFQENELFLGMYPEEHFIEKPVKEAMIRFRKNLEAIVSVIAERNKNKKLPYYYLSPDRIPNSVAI
As to the kind of experiment: Inhibition of 5-lipoxygenase (5-HETE production) in whole RBL-1 cells. The format is cell-based. Conditions: in vitro, RBL-1 whole cells, A23187 1.9 μM, 55 μM 14C-arachidonic acid, 37° C; highest concentration tested 10 μM; read-out: IC50 (lipoxygenase inhibitory activity). Here is the method: Rat basophilic leukemia cells (RBL-1) were grown in Eagle's Minimal Essential Medium containing 10% fetal calf serum. 5% calf serum, 1% glutamine and 50 mg/l gentamycin were maintained at 37° C. in an atmosphere containing 5% CO2. Exponentially growing cells were harvested by centrifugation at 400×g for 10 minutes at 4° C. and were washed once with Dulbecco's phosphate buffered saline containing 0.87 mM CaCl2. The cells were resuspended in the same buffer at a concentration of 1.85×10^7 cells/ml.
RBL-1 cells (1.57×10^7 cells/tube) were preincubated for 10 minutes at 37° C. in the presence of the indicated drugs or vehicle (1% DMSO). Following the transfer of the assay tubes to an icebath, the reaction was initiated by the sequential addition of calcium ionophore A23187, an agent which increases the ability of divalent ions such as Ca^++ to cross biological membranes (final concentration=1.9 μM) and 55 μM 1-^14 C-arachidonic acid (New England Nuclear) at a final specific activity of 3000-4000 cpm/nmole. The final volume in each tube was 1 ml. The assay tubes were incubated at 37° C. for 5 minutes, and the reaction was stopped by transferring the tubes to ice and adjusting the pH of the reaction mixture to pH 3.0-3.5 by the addition of 1M citric acid.
In order to isolate the Δ5 -lipoxygenase product, ^14 C-5-HETE that was formed from arachidonic acid, each assay tube was extracted once with 6 volumes of anhydrous diethyl ether. In most assays, the recovery of product was estimated by determining the total amount of radioactivity recovered after extraction. In the remaining assays the recovery of ^14 C-5-HETE was monitored by addition of trace quantities of ^3 H-5-HETE (New England Nuclear) prior to extraction. The ether fractions from each sample were dried under nitrogen, redissolved and spotted on Gleman silica gel-impregnated glass fiber sheets. The plates were developed in iso-octane:2-butanone:glacial acetic acid (100:9:1). The area of each plate corresponding to added 5-HETE standard was visualized in an iodine chamber. The amount of ^14 C-5-HETE presented was quantitated by liquid scintillation counting in Aquasol II (New England Nuclear) and corrected for recovery. The percent inhibition of lipoxygenase activity represents the decrease in the amount of product formed from arachidonic acid by the cells or cell supernatant in the presence of drug. The values for negative controls (assays incubated on ice in the presence of citric acid) were always less than 10% of the positive controls and were subtracted from each tube. The IC50 is the concentration of drug which is required for 50% inhibition of the enzyme, as determined graphically from assays using multiple concentrations of drug.

In the case of `CCOC(=O)CCCCCCC(=O)c1ccc2cc(OC)ccc2c1` [Example 1, Ethyl 8-(6-methoxy-2-naphthyl)-8-oxooctanoate], in experiment [1], the inhibition in vivo at 50 mg/kg is 48%.
With `CCOC(=O)CCCCC(=O)c1ccc2cc(OC)ccc2c1` [Example 2, Ethyl 6-(6-methoxy-2-naphthyl)-6-oxohexanoate], the inhibition in vivo at 22 mg/kg in experiment [1] (22 mg/kg p.o.) amounted to 50%. Moreover, at 5-lipoxygenase, the IC50 is above 10000 nM.
As to `COC(=O)CCCCCCC(=O)c1ccc2cc(OC)ccc2c1` [Example 4, Methyl 8-(6-methoxy-2-naphthyl)-8-oxooctanoate], the inhibition in vivo at 50 mg/kg in experiment [1] was 53%.
The same measure, in the same setting: in the case of `COc1ccc2cc(C(=O)CCCCCCC(=O)O)ccc2c1` [Example 6, 8-(6-Methoxy-2-naphthyl)-8-oxooctanoic acid] it was 47%.
As to `CCOC(=O)CCCCC(=O)c1ccc2cc(O)ccc2c1` [Example 8, Ethyl 6-(6-hydroxy-2-naphthyl)-6-oxohexanoate], the inhibition in vivo at 50 mg/kg in experiment [1] is 12%. Besides, the IC50 on 5-lipoxygenase is above 10000 nM.
For `C=CCOc1ccc2cc(C(=O)CCCCC(=O)OCC)ccc2c1` [Example 12, Ethyl 6-(6-allyloxy-2-naphthyl)-6-oxohexanoate] the same measures were 44% and above 10000 nM.
Turning to `C#CCOc1ccc2cc(C(=O)CCCCC(=O)OCC)ccc2c1` [Example 14, Ethyl 6-(6-propynyloxy-2-naphthyl)-6-oxohexanoate], the inhibition in vivo at 50 mg/kg in experiment [1] amounted to 23%.
Turning to `COc1ccc2cc(C(=O)CCCCC(=O)N(C)O)ccc2c1` [Example 15, N-Hydroxy-N-methyl-6-(6-methoxy-2-naphthyl)-6-oxohexanamide], the inhibition in vivo at 40 mg/kg in experiment [1] (40 mg/kg p.o.) was determined as 34%. For the same compound, the IC50 at 5-lipoxygenase was found to be 250 nM.
Turning to `COc1ccc2cc(C(=O)CCCCC(=O)NO)ccc2c1` [Example 16, N-Hydroxy-6-(6-methoxy-2-naphthyl)-6-oxohexanamide], the IC50 on 5-lipoxygenase was 10000 nM.
Consider `CCN(O)C(=O)CCCCC(=O)c1ccc2cc(OC)ccc2c1` [Example 17, N-Ethyl-N-hydroxy-6-(6-methoxy-2-naphthyl)-6-oxohexanamide], for which the inhibition in vivo at 50 mg/kg in experiment [1] was 23%. For the same compound, on 5-lipoxygenase, the concentration for half-maximal inhibition (IC50) came out at 110 nM.
For the compound `CCCCN(O)C(=O)CCCCC(=O)c1ccc2cc(OC)ccc2c1` [Example 18, N-Butyl-N-hydroxy-6-(6-methoxy-2-naphthyl)-6-oxohexanamide], the 50% inhibitory concentration (IC50) at 5-lipoxygenase was 370 nM.
For `CCCCCCCN(O)C(=O)CCCCC(=O)c1ccc2cc(OC)ccc2c1` [Example 19, N-Heptyl-N-hydroxy-6-(6-methoxy-2-naphthyl)-6-oxohexanamide], the IC50 on 5-lipoxygenase is 1600 nM.
For the compound `COc1ccc2cc(C(=O)CCCCC(=O)N(O)C(C)(C)C)ccc2c1` [Example 20, N-tert-Butyl-N-hydroxy-6-(6-methoxy-2-naphthyl)-6-oxohexanamide], on 5-lipoxygenase, the IC50 worked out at 450 nM.
As for `COc1ccc2cc(C(=O)CCCCC(=O)N(O)C3CCCCC3)ccc2c1` [Example 21, N-Hydroxy-N-cyclohexyl-6-(6-methoxy-2-naphthyl)-6-oxohexanamide], the inhibition in vivo at 50 mg/kg in experiment [1] was found to be 33%. Besides, at 5-lipoxygenase, the IC50 stood at 400 nM.
In the same order, the values of `COc1ccc2cc(C(=O)CCCCC(=O)N(O)c3ccccc3)ccc2c1` [Example 22, N-Hydroxy-N-phenyl-6-(6-methoxy-2-naphthyl)-6-oxohexanamide] are 28% and 100 nM.
For `COc1ccc2cc(C(=O)CCCCC(=O)N(C)OC)ccc2c1` [Example 23, N-Methoxy-N-methyl-6-(6-methoxy-2-naphthyl)-6-oxohexanamide] the same measures were 60% and above 10000 nM.
For `COc1ccc2cc(C(=O)CCCCC(=O)N(O)C(C)C)ccc2c1` [Example 24, N-Hydroxy-N-isopropyl-6-(6-methoxy-2-naphthyl)-6-oxohexanamide] the same measures were 51% and 120 nM.
